Drawing on BindingDB's records for PubMed 32853683 (Peking Union Medical College, 2020), this text covers IC50 for four compounds.

A short description of experiment [1]: Inhibition of caspase-like activity of human 20S proteasome beta 1.
A short description of experiment [2]: Inhibition of trypsin-like activity of human 20S proteasome beta 2.

Usually IC50 stands for the concentration that inhibits the measured activity by half.

With `CCCc1ccc(OCC(=O)N(Cc2nc(-c3ccco3)no2)C(C)C)cc1`, the IC50 in experiment [1] and in experiment [2] was more than 50 µM throughout.

As for `CCCc1ccc(OCC(=O)N(Cc2cccc(-c3cccnc3)c2)C(C)C)cc1`, the IC50 in experiment [1] and in experiment [2] was more than 50 µM throughout.

For `CCCc1ccc(OCC(=O)N(Cc2nc(-c3cccs3)no2)C(C)C)cc1`, the IC50 in experiment [1] and in experiment [2] was more than 50 µM in each case.

Regarding `CCCc1ccc(OCC(=O)N(Cc2nc(-c3cccnc3)no2)C(C)C)cc1`, the half-inhibitory concentration (IC50) in experiment [1] and in experiment [2] was more than 50 µM throughout.
